Measurements as given in publication PMC3375835 (Tetrahedron letters, 2012).
Blank lines part the entries; values can stand above or below the compound they belong to.

Assays:
Format in all cases: cell-based
[1] = Cytotoxicity to mock-infected MT-4 cells; conditions: human
HIV-1NL4–3 = assay: Anti-HIV activity against HIV-1NL4–3 infected MT-4 cells; conditions: for EC50 (concentration of the test sample that was effective to suppress HIV replication by 50%): '-' = No activity (footnote b); for EC50: read-out: EC50 (concentration of the test sample that was effective to suppress HIV replication by 50%), '-' = No activity (footnote b)
mock-infected MT-4 cells = assay: Cytotoxicity to mock-infected MT-4 cells; conditions: read-out: CC50 (concentration of test sample that was cytotoxic to 50% of the mock-infected cells)

Compound: Cc1cn([C@H]2C[C@H](N=[N+]=[N-])[C@@H](CO)O2)c(=O)[nH]c1=O [AZT, 3′-azido-3′-deoxythymidine, reference compound]
- CC50 [1]: 140 µM
- SI (Selectivity index = CC50/EC50) (HIV-1NL4–3; CC50/EC50): 1385

Compound: C=C(C)[C@@H]1CC[C@]2(C(=O)O)CC[C@]3(C)[C@H](CC[C@@H]4[C@@]5(C)CC[C@H](OC(=O)CC(C)(C)C(=O)O)C(C)(C)[C@@H]5CC[C@]43C)[C@@H]12 [Bevirimat (14), 3-O-(3′,3′-dimethylsuccinyl)betulinic acid, reference compound]
- CC50 [1]: 13.2 µM

Compound: C=C(C)C1CCC2(CO[Si](C)(C)C(C)(C)C)CCC3(C)C(CCC4C5(C)CCC(OC(=O)OCc6cn(C7CC(n8cc(C)c(=O)[nH]c8=O)OC7CO)nn6)C(C)(C)C5CCC43C)C12 (stereo not drawn) [Compound 9]
- EC50 (concentration of the test sample that was effective to suppress HIV replication by 50%) (HIV-1NL4–3): inactive and -

Compound: C=C(C)C1CCC2(COC(=O)CC(C)(C)C(=O)O)CCC3(C)C(CCC4C5(C)CCC(OCc6cn(C7CC(n8cc(C)c(=O)[nH]c8=O)OC7CO)nn6)C(C)(C)C5CCC43C)C12 (stereo not drawn) [Compound 13]
- CC50 (mock-infected MT-4 cells): > 4.6 µM
- EC50 (HIV-1NL4–3): 0.35 µM

Compound: C=C(C)[C@@H]1CC[C@]2(C(=O)OCc3cn([C@H]4C[C@H](n5cc(C)c(=O)[nH]c5=O)O[C@@H]4CO)nn3)CC[C@]3(C)[C@H](CC[C@@H]4[C@@]5(C)CC[C@H](OC(=O)CC(C)(C)C(=O)O)C(C)(C)[C@@H]5CC[C@]43C)[C@@H]12 [Compound 16]
- CC50 (mock-infected MT-4 cells): 11.2 µM
- EC50 (HIV-1NL4–3): 0.1 µM

Continued, in another order:

- EC50 (concentration of the test sample that was effective to suppress HIV replication by 50%) (HIV-1NL4–3): - ^b
Compound: C#CCOC1CCC2(C)C(CCC3(C)C2CCC2C4C(C(=C)C)CCC4(CO[Si](C)(C)C(C)(C)C)CCC23C)C1(C)C (stereo not drawn) [Compound 2]

- EC50 (concentration of the test sample that was effective to suppress HIV replication by 50%) (HIV-1NL4–3): -
Compound: C#CCOC(=O)OC1CCC2(C)C(CCC3(C)C2CCC2C4C(C(=C)C)CCC4(CO[Si](C)(C)C(C)(C)C)CCC23C)C1(C)C (stereo not drawn) [Compound 3]

- EC50 (concentration of the test sample that was effective to suppress HIV replication by 50%) (HIV-1NL4–3): -
Compound: C#CCOC1CCC2(C)C(CCC3(C)C2CCC2C4C(C(=C)C)CCC4(CO)CCC23C)C1(C)C (stereo not drawn) [Compound 4]

- EC50 (concentration of the test sample that was effective to suppress HIV replication by 50%) (HIV-1NL4–3): -
Compound: C#CCOC(=O)OC1CCC2(C)C(CCC3(C)C2CCC2C4C(C(=C)C)CCC4(CO)CCC23C)C1(C)C (stereo not drawn) [Compound 5]

- EC50 (concentration of the test sample that was effective to suppress HIV replication by 50%) (HIV-1NL4–3): -
Compound: C#CCOC1CCC2(C)C(CCC3(C)C2CCC2C4C(C(=C)C)CCC4(COC(=O)CC(C)(C)C(=O)O)CCC23C)C1(C)C (stereo not drawn) [Compound 7]

- EC50 (HIV-1NL4–3): 0.067 µM
Compound: C#CCOC(=O)[C@]12CC[C@@H](C(=C)C)[C@@H]1[C@H]1CC[C@@H]3[C@@]4(C)CC[C@H](OC(=O)CC(C)(C)C(=O)O)C(C)(C)[C@@H]4CC[C@@]3(C)[C@]1(C)CC2 [Compound 15]
- CC50 (mock-infected MT-4 cells): 15.3 µM
